Data taken from patent publication US20090163450A1, “COMBINATIONS COMPRISING A PROSTAGLANDIN AND USES THEREOF” (priority 2007, published 2009).
“Also recorded” adds a separate entry of the source. Read-outs that look alike come from different tables or passages of the source.

Experiments:
[1] = system: human B52 NSCLC cells xenografted to nude mice; conditions: for effect on tumor growth (tumor area): 1st experiment
Description: (§1) B-52 NSCL tumor pieces obtained from in vivo passage, were implanted s.c. in the inguinal region of female nude mice. Treatment was started when the tumors were approximately 25 mm^2 in size. Tumor area was determined by caliper measurements twice weekly.
B-52 tumor pieces obtained from in vivo passage, were implanted s.c. in the inguinal region of female nude mice. Treatment was started when the tumors were approximately 25 mM2 in size. Tumor area was determined by caliper measurements twice weekly.
(§2) Tumor area was determined by caliper measurements.

[2] = system: human B-52 NSCL cancer model, xenografted in nude mice; experiment: 2nd experiment: B-52 NSCL cancer xenograft in nude mice, epothilone with Iloprost and/or O-acetyl salicylic acid; conditions: Iloprost 0.2 mg/kg i.v. days 22-26, O-acetyl salicylic acid 60 mg/kg p.o. days 19-29; for effect on tumor growth (tumor area): 2nd experiment (FIG. 1), epothilone 8 mg/kg i.v. once day 24
Description: as §1
The 2nd Experiment was made to evaluate in a human B-52 NSCL cancer model, xenografted in nude mice the effect of: • Iloprost and O-acetyl salicyclic acid alone, • the combination of Iloprost and epothilone, • the combination of O-acetyl salicyclic acid and epothilone, • the combination of Iloprost and O-acetyl salicyclic acid as well as • the combination of Iloprost, O-acetyl salicyclic acid and epothilone.
The study was designed to determine the response of a lung cancer model to a cytotoxic treatment regime with the epothilone derivative in combination with Iloprost, O-acetyl salicylic acid or the combination thereof.
The tumor-inhibiting effect of, O-acetyl salicylic acid (ASS) and iloprost was investigated in the human B-52 NSCL cancer model, xenografted in nude mice.
B-52 tumor pieces obtained from in vivo passage, were implanted s.c. in the inguinal region of female nude mice. Treatment was started when the tumors were approximately 25 mm^2 in size. Tumor area was determined by caliper measurements twice weekly.
as §2

**Q.** How did the “effect on tumor growth (tumor area)” value ([1]; Iloprost 0.2 mg/kg i.v. 1x/day days 27-31, epothilone 7 or 10 mg/kg i.v. 1x day 29) turn out when `CC#CCC(C)[C@H](O)/C=C/[C@@H]1[C@H]2C/C(=C/CCCC(=O)O)C[C@H]2C[C@H]1O` (stereo partly drawn) [Iloprost, ((E)-5-{(3aS,4R,5R,6aS)-5-Hydroxy-4-[(E)-(3S,4RS)-3-hydroxy)-4-methyl-1-octen-6-ynyl]perhydropentalen-2-ylidene}valeric acid] was run?
**A.** no significant effect on tumor growth

**Q.** What about the “effect on tumor growth (tumor area)” value [2] of the same molecule?
**A.** no effects

**Q.** And the effect on bodyweight ([2]; 2nd experiment)?
**A.** no effect

**Q.** For `C=CC[C@H]1C(=O)C(C)(C)[C@@H](O)CC(=O)O[C@H](c2ccc3sc(C)nc3c2)C[C@@H]2O[C@]2(C)CCC[C@H](C)[C@@H]1O` [epothilone, (1S,3S,7S,10R,11S,12S,16R)-7,11-dihydroxy-3-(2-methyl-benzothiazol-5-yl)-10-(prop-2-en-1-yl)-8,8,12,16-tetramethyl-4,17-dioxabicyclo[14.1.0]heptadecane-5,9-dione], which “effect on tumor growth (tumor area)” value ([1]; epothilone at the highest dose of 10 mg/kg i.v. 1x day 29) is on record?
**A.** reduced tumor growth

**Q.** And the toxicity ([1]; mouse, in vivo, iv, 10 mg/kg)?
**A.** proved to be toxic

**Q.** What about the “effect on tumor growth (tumor area)” value [2] of the same molecule?
**A.** slightly reduced tumor growth; also recorded: effective in growth inhibiting
